US11078540B2, “Methods of diagnosing and treating cancer in patients having or developing resistance to a first cancer therapy” (DANA-FARBER CANCER INSTITUTE, INC., priority 2010, dated 2021)

Key:
Type in all cases: cell-based, human
A375 cells [1] = assay: High throughput ORF screening: viability of A375 expressing the kinase ORF collection in 1 μM PLX4720 relative to untreated, normalized to MEK1DD (Cell Titer-Glo); conditions: Homo sapiens, A-375; A375 expressing kinase ORF collection, 1 μM PLX4720; read-out: relative viability, mean of all ORFs, normalized to MEK1DD
Description: A375 melanoma cells were plated in 384-well microtiter plates (500 cells per well). The following day, cells were spin-infected with the lentivirally-packaged kinase ORF library in the presence of 8 ug/ml polybrene. 48 hours post-infection, media was replaced with standard growth media (2 replicates), media containing 1 μM PLX4720 (2 replicates, 2 time points) or media containing 10 ug/ml blasticidin (2 replicates). After four days and 6 days, cell growth was assayed using Cell Titer-Glo (Promega) according to manufacturer instructions. The entire experiment was performed twice.
Raw luminescence values were imported into Microsoft Excel. Infection efficiency was determined by the percentage of duplicate-averaged raw luminescence in blasticidin selected cells relative to non-selected cells. ORFs with an infection efficiency of less than 0.70 were excluded from further analysis along with any ORF having a standard deviation of >15,000 raw luminescence units between duplicates. To identify ORFs whose expression affects proliferation, we compared the duplicate-averaged raw luminescence of individual ORFs against the average and standard deviation of all control-treated cells via the z-score, or standard score, below,
[formula] where x=average raw luminescence of a given ORF, μ=the mean raw luminescence of all ORFs and σ=the standard deviation of the raw luminescence of all wells. Any individual ORF with a z-score>+2 or <−2 was annotated as affecting proliferation and removed from final analysis. Differential proliferation was determined by the percentage of duplicate-averaged raw luminescence values in PLX4720 (1 μM) treated cells relative to untreated cells. […] MEK1^DD normalized differential proliferation for each individual ORF was averaged across two duplicate experiments, with two time points for each experiment (day 4 and day 6). A z-score was then generated, as described above for average MEK1^DD normalized differential proliferation. ORFs with a z-score of >2 were considered hits and were followed up in the secondary screen.

A375 cells [2] = assay: Secondary screen: PLX4720 GI50 in A375 expressing candidate resistance ORFs (WST-1); conditions: for GI50: Homo sapiens
Description: (§1) ORF-expressing lentivirus was added at a 1:10 dilution in the presence of 8 μg/ml polybrene, and centrifuged at 2250 RPM and 37° C. for 1 h. Following centrifugation, virus-containing media was changed to normal growth media and allowed to incubate for 18 h.

SKMEL28 cells = assay: Secondary screen: PLX4720 GI50 in SKMEL28 expressing candidate resistance ORFs (WST-1); conditions: for GI50: Homo sapiens
Description: as §1

B-RAF^V600E cell lines = assay: Pharmacologic growth inhibition assays (WST1 viability, GI50, single-dose studies); conditions: Homo sapiens; OUMS-23, RPMI-7951 and M307 (COT-expressing B-RAF^V600E cell lines)
Description: Cultured cells were seeded into 96-well plates (3,000 cells per well) for all melanoma cell lines; 1,500 cells were seeded for A375. Twenty-four hours after seeding, serial dilutions of the relevant compound were prepared in DMSO added to cells, yielding final drug concentrations ranging from 100 μM to […], with the final volume of DMSO not exceeding 1%. Cells were incubated for 96 h following addition of drug. Cell viability was measured using the WST1 viability assay (Roche). Viability was calculated as a percentage of control (untreated cells) after background subtraction. A minimum of six replicates were performed for each cell line and drug combination. Data from growth-inhibition assays were modeled using a nonlinear regression curve fit with a sigmoid dose-response. […] Sigmoid-response curves that crossed the 50% inhibition point at or above 10 μM have GI50 values annotated as >10 μM. For single-dose studies, the identical protocol was followed, using a single dose of indicated drug (1 μM unless otherwise noted).

[3] = tested on: pERK1/2 (T202/Y204), pMEK1/2 (S217/221); assay: Immunoblots and immunoprecipitations of MAPK pathway proteins in treated cells
Description: Cells were washed twice with ice-cold PBS and lysed with 1% NP-40 buffer [150 mM NaCl, 50 mM Tris pH 7.5, 2 mM EDTA pH 8, 25 mM NaF and 1% NP-40] containing 2× protease inhibitors (Roche) and 1× Phosphatase Inhibitor Cocktails I and II (CalBioChem). Lysates were quantified (Bradford assay), normalized, reduced, denatured (95° C.) and resolved by SDS gel electrophoresis on 10% Tris/Glycine gels (Invitrogen). Protein was transferred to PVDF membranes and probed with primary antibodies recognizing pERK1/2 (T202/Y204), pMEK1/2 (S217/221), MEK1/2, MEK1, MEK2, C-RAF (rabbit host), pC-RAF (pS338) (Cell Signaling Technology; 1:1,000), V5-HRP (Invitrogen; (1:5,000), COT (1:500), B-RAF (1:2,000), Actin (1:1,000), Actin-HRP (1:1,000; Santa Cruz)), C-RAF (mouse host; 1:1,000; BD Transduction Labs), Vinculin (Sigma; 1:20,000), AXL (1:500; R&D Systems). After incubation with the appropriate secondary antibody (anti-rabbit, anti-mouse IgG, HRP-linked; 1:1,000 dilution, Cell Signaling Technology or anti-goat IgG, HRP-linked; 1:1,000 dilution; Santa Cruz), proteins were detected using chemiluminescence (Pierce). Immunoprecipitations were performed overnight at 4° C. in 1% NP-40 lysis buffer, as described above, at a concentration of 1 μg/μl total protein using an antibody recognizing C-RAF (1:50; Cell Signaling Technology). Antibody: antigen complexes were bound to Protein A agarose (25 μL, 50% slurry; Pierce) for 2 hrs. at 4° C. Beads were centrifuged and washed three times in lysis buffer and eluted and denatured (95° C.) in 2× reduced sample buffer (Invitrogen). Immunoblots were performed as above. Phospho-protein quantification was performed using NIH Image J.

COT mRNA = assay: Quantitative RT-PCR of COT mRNA in cell lines; conditions: COT-expressing A375 cells, 1 μM PLX4720, 18 h
Description: mRNA was extracted from cell lines and fresh-frozen tumors using the RNeasy kit (Qiagen). Total mRNA was used for subsequent reverse transcription using the SuperScript III First-Strand Synthesis SuperMix (Invitrogen) for cell lines and unpaired tumor samples, and the SuperScript VILO cDNA synthesis kit (Invitrogen) for paired frozen tumor samples. 5 μl of the RT reaction was used for quantitative PCR using SYBR Green PCR Master Mix and gene-specific primers, in triplicate, using an ABI 7300 Real Time PCR System. Primers used for detection are as follows: […]

Q: For `CCCS(=O)(=O)Nc1ccc(F)c(C(=O)c2c[nH]c3ncc(Cl)cc23)c1F` [PLX4720], which viability at 1 µM (A375 cells [1]) is on record?
A: 44.3%

Q: What about the “Fold Change GI50” value (A375 cells [2]; A375, Mock control, relative to MEK1) of the same compound?
A: 0.91 fold

Q: What about the “Fold Change GI50” value (A375 cells [2]; A375 expressing AXL ORF, relative to MEK1) of the same compound?
A: 5.98 fold

Q: And the “Fold Change GI50” value (A375 cells [2]; A375 expressing CRKL ORF, relative to MEK1)?
A: 59.8 fold

Q: And the “Fold Change GI50” value (A375 cells [2]; A375 expressing ERBB2 ORF, relative to MEK1)?
A: 7.95 fold

Q: And the “Fold Change GI50” value (A375 cells [2]; A375 expressing FGR ORF, relative to MEK1)?
A: 59.8 fold

Q: What about the “Fold Change GI50” value (A375 cells [2]; A375 expressing MAP3K8 ORF, relative to MEK1) of the same compound?
A: 598 fold

Q: What about the “Fold Change GI50” value (A375 cells [2]; A375 expressing MEK1, (−) control) of the same compound?
A: 1 fold

Q: And the “Fold Change GI50” value (A375 cells [2]; A375 expressing MEK DD, (+) control, relative to MEK1)?
A: 28 fold

Q: And the “Fold Change GI50” value (A375 cells [2]; A375 expressing PAK3 ORF, relative to MEK1)?
A: 2.95 fold

Q: What about the “Fold Change GI50” value (A375 cells [2]; A375 expressing PRKCE ORF, relative to MEK1) of the same compound?
A: 26.4 fold

Q: And the “Fold Change GI50” value (A375 cells [2]; A375 expressing PRKCH ORF, relative to MEK1)?
A: 24.7 fold

Q: And the “Fold Change GI50” value (A375 cells [2]; A375 expressing RAF1 ORF, relative to MEK1)?
A: 598 fold

Q: And the GI50 (A375 cells [2]; A-375, A375, Mock control)?
A: 153 nM

Q: What about the GI50 (A375 cells [2]; A-375, A375 expressing AXL ORF) of the same compound?
A: 1000 nM

Q: And the GI50 (A375 cells [2]; A-375, A375 expressing CRKL ORF)?
A: > 10000 nM

Q: And the GI50 (A375 cells [2]; A-375, A375 expressing ERBB2 ORF)?
A: 1330 nM

Q: What about the GI50 (A375 cells [2]; A-375, A375 expressing FGR ORF) of the same compound?
A: > 10000 nM

Q: What about the GI50 (A375 cells [2]; A-375, A375 expressing MAP3K8 ORF) of the same compound?
A: > 100000 nM

Q: And the GI50 (A375 cells [2]; A-375, A375 expressing MEK1, (−) control)?
A: 167 nM

Q: What about the GI50 (A375 cells [2]; A-375, A375 expressing MEK DD, (+) control) of the same compound?
A: 4800 nM

Q: And the GI50 (A375 cells [2]; A-375, A375 expressing PAK3 ORF)?
A: 493 nM

Q: And the GI50 (A375 cells [2]; A-375, A375 expressing PRKCE ORF)?
A: 4410 nM

Q: And the GI50 (A375 cells [2]; A-375, A375 expressing PRKCH ORF)?
A: 4140 nM

Q: What about the GI50 (A375 cells [2]; A-375, A375 expressing RAF1 ORF) of the same compound?
A: ≥ 100000 nM

Q: And the “shift of the PLX4720 GI50” value (A375 cells [2]; MAP3K8 (COT/Tpl2) and RAF1 (C-RAF) ORFs, in A375 and SKMEL28)?
A: 10-600 fold

Q: What about the GI50 (SKMEL28 cells; SK-MEL-28, SKMEL28, Mock control) of the same compound?
A: 529 nM

Q: And the GI50 (SKMEL28 cells; SK-MEL-28, SKMEL28 expressing AXL ORF)?
A: 1180 nM

Q: What about the GI50 (SKMEL28 cells; SK-MEL-28, SKMEL28 expressing CRKL ORF) of the same compound?
A: 9700 nM

Q: What about the GI50 (SKMEL28 cells; SK-MEL-28, SKMEL28 expressing ERBB2 ORF) of the same compound?
A: 1000 nM

Q: What about the GI50 (SKMEL28 cells; SK-MEL-28, SKMEL28 expressing FGR ORF) of the same compound?
A: 5000 nM

Q: And the GI50 (SKMEL28 cells; SK-MEL-28, SKMEL28 expressing MAP3K8 ORF)?
A: > 100000 nM

Q: And the GI50 (SKMEL28 cells; SK-MEL-28, SKMEL28 expressing MEK1, (−) control)?
A: 1000 nM

Q: And the GI50 (SKMEL28 cells; SK-MEL-28, SKMEL28 expressing MEK DD, (+) control)?
A: 8290 nM

Q: What about the GI50 (SKMEL28 cells; SK-MEL-28, SKMEL28 expressing PAK3 ORF) of the same compound?
A: 904 nM

Q: And the GI50 (SKMEL28 cells; SK-MEL-28, SKMEL28 expressing PRKCE ORF)?
A: 1910 nM

Q: And the GI50 (SKMEL28 cells; SK-MEL-28, SKMEL28 expressing PRKCH ORF)?
A: 2260 nM

Q: What about the GI50 (SKMEL28 cells; SK-MEL-28, SKMEL28 expressing RAF1 ORF) of the same compound?
A: ≥ 10000 nM

Q: And the “Fold Change GI50” value (SKMEL28 cells; SKMEL28, Mock control, relative to MEK1)?
A: 1.89 fold

Q: And the “Fold Change GI50” value (SKMEL28 cells; SKMEL28 expressing AXL ORF, relative to MEK1)?
A: 1.18 fold

Q: What about the “Fold Change GI50” value (SKMEL28 cells; SKMEL28 expressing CRKL ORF, relative to MEK1) of the same compound?
A: 9.7 fold

Q: And the “Fold Change GI50” value (SKMEL28 cells; SKMEL28 expressing ERBB2 ORF, relative to MEK1)?
A: 1 fold

Q: And the “Fold Change GI50” value (SKMEL28 cells; SKMEL28 expressing FGR ORF, relative to MEK1)?
A: 5 fold

Q: And the “Fold Change GI50” value (SKMEL28 cells; SKMEL28 expressing MAP3K8 ORF, relative to MEK1)?
A: ~100 fold

Q: And the “Fold Change GI50” value (SKMEL28 cells; SKMEL28 expressing MEK1, (−) control)?
A: 1 fold

Q: And the “Fold Change GI50” value (SKMEL28 cells; SKMEL28 expressing MEK DD, (+) control, relative to MEK1)?
A: 8.29 fold

Q: And the “Fold Change GI50” value (SKMEL28 cells; SKMEL28 expressing PAK3 ORF, relative to MEK1)?
A: 0.9041 fold

Q: And the “Fold Change GI50” value (SKMEL28 cells; SKMEL28 expressing PRKCE ORF, relative to MEK1)?
A: 1.91 fold

Q: And the “Fold Change GI50” value (SKMEL28 cells; SKMEL28 expressing PRKCH ORF, relative to MEK1)?
A: 2.26 fold

Q: What about the “Fold Change GI50” value (SKMEL28 cells; SKMEL28 expressing RAF1 ORF, relative to MEK1) of the same compound?
A: ≥10 fold

Q: What about the GI50 (B-RAF^V600E cell lines) of the same compound?
A: 8000 to 10000 nM

Q: And the “endogenous C-RAF:B-RAF heterodimers” value ([3]; A375 cells, immunoprecipitated C-RAF, 1 μM PLX4720, 18 hr)?
A: measurable and inducible

Q: What about the COT protein ([3]; COT-expressing A375 cells) of the same compound?
A: dose-dependent increase

Q: What about the “ERK phosphorylation in the context of B-RAF inhibition” value ([3]; OUMS-23, RPMI-7951 and M307) of the same compound?
A: sustained ERK phosphorylation

Q: And the “phosphorylation of ERK/MEK” value ([3]; OUMS-23, across a dose range of PLX4720)?
A: constitutive phosphorylation

Q: What about the “ectopic COT mRNA levels” value (COT mRNA) of the same compound?
A: without affecting
